Measurements: US20260235623A1, “EFFECT INDUCED BY A SODIUM-GLUCOSE COTRANSPORTER INHIBITOR (SGLTi) IN A SUBJECT SUFFERING FROM A CARDIOVASCULAR DISEASE” (Roche Diagnostics Operations, Inc., priority 2023, published 2026)
Like-named read-outs stand apart in the source and are kept apart here.

Experiments:
FABP3 = details: for amount of FABP3 higher compared to baseline: 3 months (V2)
Excerpt: (§1) A total of 100 patients with stable chronic HFrEF participating in a prospective registry at the heart failure outpatient clinic at the Medical University of Vienna, which has been imputed with all clinically relevant data, are included in the present study. The inclusion criteria of the registry are documented chronic HFrEF, an age of at least 18 years and stable heart failure related medical therapy in the last 3 months. Inclusion criteria for this study is the participation in the registry, and the absence of any exclusion criteria avoiding the prescription of SGLT-2 inhibitor (Dapagliflozin). Visits at the outpatient clinic are conducted at baseline (visit 0), at week 4 after SGLT-2 inhibitor therapy initiation (visit 1), after 3 month (visit 2), after 6 months (visit 3), and every 6 months thereafter.
(§2) Blood and urine samples are drawn from a peripheral vein and collected at baseline prior to administration of the SGLT-2 inhibitor and repeated at every regularly scheduled study-visit. Samples are used for (1.) routine laboratory analysis and (2.) biobank storage.
(§3) Blood for the biobank is immediately centrifuged and plasma samples are stored at-80° C. for future analysis. The plasma samples and urine samples are stored in the central “biobank” facility of the Department of Laboratory Medicine at the Medical University of Vienna.
(§4) FABP3 and additional cardiac biomarkers N-terminal B-type natriuretic peptide (NT-proBNP) and GDF-15 are measured in plasma using the Elecsys Systems (Roche Diagnostics, Mannheim, Germany).

FABP3/GDF-15 = details: for median FABP3/GDF-15 ratio: FABP3 in ng/ml, GDF-15 in pg/mL, baseline median ratio 0.017
Excerpt: as §1, §2, §3, §4

FABP3/NT-proBNP = details: for median FABP3/NT-proBNP ratio: FABP3 in ng/ml, NT-proBNP in pg/mL, baseline median ratio 0.026
Excerpt: as §1, §2, §3, §4

NT-proBNP = details: for median NT-proBNP concentration: baseline median 1396.30; for change of amount of NT-proBNP before and after initiation: before and after SGLT2i initiation
Excerpt: as §1, §2, §3, §4

GDF-15 = details: baseline median 2439.34
Excerpt: as §1, §2, §3, §4

[1] = after 6 months (V3), vs. baseline
[2] = V1: week 4 after SGLT2i therapy initiation

SMILES: CCOc1ccc(Cc2cc([C@@H]3O[C@H](CO)[C@@H](O)[C@H](O)[C@H]3O)ccc2Cl)cc1 [SGLT2i, Dapagliflozin]
- relative increase of FABP3 concentration alone (FABP3; [1]): 19%
- change in plasma concentration of FABP3 after therapy initiation (FABP3; chronic HFrEF patients): increase in plasma concentration of FABP3
- median FABP3 plasma concentration (FABP3; chronic HFrEF patients, V1: week 4 after SGLT2i therapy initiation, baseline median 37.82): 40.86 ng/mL
- median FABP3 plasma concentration (FABP3; chronic HFrEF patients, V2: 3 months, baseline median 37.82): 45.14 ng/mL
- median FABP3 plasma concentration (FABP3; chronic HFrEF patients, V3: 6 months, baseline median 37.82): 44.36 ng/mL
- FABP3 plasma concentration (FABP3; chronic HFrEF patients, V4: 12 months, baseline median 37.82): 44.47 ng/mL
- amount of FABP3 higher compared to baseline (FABP3; patient subgroup with high baseline FABP3 (above 37.8 ng/ml)): about 14%
- amount of FABP3 higher compared to baseline (FABP3; patient subgroup with low baseline FABP3 (below 37.8 ng/ml)): about 27%
- median FABP3 concentration (FABP3; patients with high baseline FABP3 (above 37.8 ng/ml), V1: week 4, baseline median 47.97): 53.56 ng/mL
- median FABP3 concentration (FABP3; patients with high baseline FABP3 (above 37.8 ng/ml), V2: 3 months, baseline median 47.97): 54.73 ng/mL
- median FABP3 concentration (FABP3; patients with high baseline FABP3 (above 37.8 ng/ml), V3: 6 months, baseline median 47.97): 54.51 ng/mL
- FABP3 concentration (FABP3; patients with high baseline FABP3 (above 37.8 ng/ml), V4: 12 months, baseline median 47.97): 53.23 ng/mL
- median FABP3 concentration (FABP3; patients with low baseline FABP3 (below 37.8 ng/mL), V1: week 4, baseline median 29.05): 31.41 ng/mL
- median FABP3 concentration (FABP3; patients with low baseline FABP3 (below 37.8 ng/mL), V2: 3 months, baseline median 29.05): 38.86 ng/mL
- median FABP3 concentration (FABP3; patients with low baseline FABP3 (below 37.8 ng/mL), V3: 6 months, baseline median 29.05): 36.41 ng/mL
- FABP3 concentration (FABP3; patients with low baseline FABP3 (below 37.8 ng/mL), V4: 12 months, baseline median 29.05): 36.76 ng/mL
- time for which the FABP3 increase is apparent (FABP3; under SGLTi treatment): ≥ 12 months
- median FABP3/GDF-15 ratio (FABP3/GDF-15; V1: week 4): 0.016
- median FABP3/GDF-15 ratio (FABP3/GDF-15; V2: 3 months): 0.016
- median FABP3/GDF-15 ratio (FABP3/GDF-15; V3: 6 months): 0.016
- median FABP3/GDF-15 ratio (FABP3/GDF-15; V4: 12 months): 0.019
- change of FABP3/GDF-15 ratio after initiation (FABP3/GDF-15; after SGLT2i initiation): remains stable
- peak of relative increase of FABP3/GDF-15 ratio (FABP3/GDF-15; at 12 months (V4), vs. baseline): 12%
- median FABP3/NT-proBNP ratio (FABP3/NT-proBNP; V1: week 4): 0.032
- median FABP3/NT-proBNP ratio (FABP3/NT-proBNP; V2: 3 months): 0.039
- median FABP3/NT-proBNP ratio (FABP3/NT-proBNP; V3: 6 months): 0.046
- median FABP3/NT-proBNP ratio (FABP3/NT-proBNP; V4: 12 months): 0.033
- peak of relative increase of FABP3/NT-proBNP ratio (FABP3/NT-proBNP; [1]): 77%
- change of FABP3/NT-proBNP ratio after initiation (FABP3/NT-proBNP; over time after SGLT2i initiation): increases over time
- median NT-proBNP concentration (NT-proBNP; [2]): 1115.68 pg/mL
- median NT-proBNP concentration (NT-proBNP; V2: 3 months): 1191.95 pg/mL
- median NT-proBNP concentration (NT-proBNP; V3: 6 months): 889.21 pg/mL
- median NT-proBNP concentration (NT-proBNP; V4: 12 months): 1172.84 pg/mL
- change of amount of NT-proBNP before and after initiation (NT-proBNP): does not correlate
- change of amount of NT-proBNP before and after initiation (NT-proBNP; listed as SGLTi): does not significantly change
- median GDF-15 concentration (GDF-15; [2]): 2657.16 pg/mL
- median GDF-15 concentration (GDF-15; V2: 3 months): 3036.18 pg/mL
- median GDF-15 concentration (GDF-15; V3: 6 months): 2414.01 pg/mL
- median GDF-15 concentration (GDF-15; V4: 12 months): 2039.85 pg/mL
